Experimental data: ChEMBL document CHEMBL1201862, “PubChem BioAssay data set” (2004)
Calls of active or inactive are those of the source.

Tests used:
[1] = target: Glyceraldehyde-3-phosphate dehydrogenase (Homo sapiens, UniProt P04406)
[2] = target: T1, Alkaline phosphatase, tissue-nonspecific isozyme (Homo sapiens, UniProt P05186); experiment: potency against alkaline phosphatase TNAP – biochemical, luminescent, dose response, SAR follow-up (AID 1056)
T1 sequence (P05186 whole entry): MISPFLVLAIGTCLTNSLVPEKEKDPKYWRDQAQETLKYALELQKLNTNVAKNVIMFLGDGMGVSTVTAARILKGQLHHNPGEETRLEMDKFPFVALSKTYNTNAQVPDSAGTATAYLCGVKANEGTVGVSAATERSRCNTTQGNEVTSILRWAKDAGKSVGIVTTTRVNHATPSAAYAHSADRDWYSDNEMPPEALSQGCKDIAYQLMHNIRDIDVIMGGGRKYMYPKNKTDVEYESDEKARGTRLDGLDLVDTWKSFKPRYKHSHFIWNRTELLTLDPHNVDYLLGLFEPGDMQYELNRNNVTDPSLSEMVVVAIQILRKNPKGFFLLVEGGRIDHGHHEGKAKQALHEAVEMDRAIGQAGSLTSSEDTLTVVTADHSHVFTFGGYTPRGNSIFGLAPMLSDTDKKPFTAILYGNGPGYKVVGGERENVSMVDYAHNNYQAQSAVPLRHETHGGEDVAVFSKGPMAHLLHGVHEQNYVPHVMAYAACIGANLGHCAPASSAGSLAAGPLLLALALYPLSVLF

fMet-Leu-Phe receptor = target: T2, fMet-Leu-Phe receptor (Homo sapiens, UniProt P21462); experiment: formyl peptide receptor binders – dose response (AID 519); assay type: functional
T2 sequence (P21462 whole entry): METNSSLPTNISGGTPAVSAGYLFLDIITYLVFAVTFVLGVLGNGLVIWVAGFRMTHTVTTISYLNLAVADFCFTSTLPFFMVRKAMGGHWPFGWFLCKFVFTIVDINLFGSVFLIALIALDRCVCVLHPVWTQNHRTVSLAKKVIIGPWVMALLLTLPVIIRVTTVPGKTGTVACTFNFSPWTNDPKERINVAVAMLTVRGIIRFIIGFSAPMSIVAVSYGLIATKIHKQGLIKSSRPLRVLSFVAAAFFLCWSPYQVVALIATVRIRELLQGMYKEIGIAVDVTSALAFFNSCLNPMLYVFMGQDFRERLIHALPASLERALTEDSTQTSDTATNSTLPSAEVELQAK

[3] = target: G-protein coupled receptor 55 (Homo sapiens, UniProt Q9Y2T6); experiment: inhibition of LPI-stimulated GPR55 beta-arrestin translocation – imaging, U2OS, beta-arrestin-GFP, LPI agonist, primary screen (AID 2013); assay type: functional;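 also: antagonist potency measured as reduced agonist-driven arrestin aggregation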
G-protein coupled receptor 55, sequence (Q9Y2T6 whole entry): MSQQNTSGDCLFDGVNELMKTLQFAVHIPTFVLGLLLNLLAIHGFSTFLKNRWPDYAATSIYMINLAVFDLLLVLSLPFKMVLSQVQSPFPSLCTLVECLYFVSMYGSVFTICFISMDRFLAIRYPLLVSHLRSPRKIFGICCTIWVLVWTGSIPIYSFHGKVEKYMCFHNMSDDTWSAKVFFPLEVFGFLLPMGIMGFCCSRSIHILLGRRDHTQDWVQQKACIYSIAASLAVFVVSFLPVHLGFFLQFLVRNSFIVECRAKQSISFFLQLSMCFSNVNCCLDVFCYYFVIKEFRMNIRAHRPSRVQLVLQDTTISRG

Prothrombin = Prothrombin (Homo sapiens, UniProt P00734); experiment: Thrombin 1536 HTS Dose Response Confirmation. [Related pubchem assays: 1046 (Thrombin 1536 HTS; hits were confirmed in this assay)]; assay type: functional
Cytochrome P450 3A4 = Cytochrome P450 3A4 (Homo sapiens, UniProt P08684); conditions: Potency;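 also: confirmatory qHTS run detecting inhibitors and substrates of CYP3A4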
Cytochrome P450 3A4, sequence (P08684 whole entry): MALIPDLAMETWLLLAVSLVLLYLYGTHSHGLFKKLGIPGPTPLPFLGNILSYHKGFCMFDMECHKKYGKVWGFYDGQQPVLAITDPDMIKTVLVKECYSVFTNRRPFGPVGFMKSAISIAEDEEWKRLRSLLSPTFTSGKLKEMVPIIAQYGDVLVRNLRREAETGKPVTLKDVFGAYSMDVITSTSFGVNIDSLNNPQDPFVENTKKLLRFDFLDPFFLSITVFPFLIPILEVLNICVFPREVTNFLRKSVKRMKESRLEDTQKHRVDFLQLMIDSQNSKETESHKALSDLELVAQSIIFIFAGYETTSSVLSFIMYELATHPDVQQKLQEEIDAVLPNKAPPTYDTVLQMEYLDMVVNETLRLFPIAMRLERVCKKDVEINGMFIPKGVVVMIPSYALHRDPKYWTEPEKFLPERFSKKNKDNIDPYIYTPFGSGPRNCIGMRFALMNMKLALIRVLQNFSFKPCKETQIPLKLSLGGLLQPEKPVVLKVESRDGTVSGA

Coagulation factor XII = target: T3, Coagulation factor XII (Homo sapiens, UniProt P00748); assay type: functional;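 also: activated factor XIIa alpha cleaving a fluorogenic AMC peptide substrate; inhibitor potency from loss of enzyme activity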
T3 sequence (P00748 whole entry): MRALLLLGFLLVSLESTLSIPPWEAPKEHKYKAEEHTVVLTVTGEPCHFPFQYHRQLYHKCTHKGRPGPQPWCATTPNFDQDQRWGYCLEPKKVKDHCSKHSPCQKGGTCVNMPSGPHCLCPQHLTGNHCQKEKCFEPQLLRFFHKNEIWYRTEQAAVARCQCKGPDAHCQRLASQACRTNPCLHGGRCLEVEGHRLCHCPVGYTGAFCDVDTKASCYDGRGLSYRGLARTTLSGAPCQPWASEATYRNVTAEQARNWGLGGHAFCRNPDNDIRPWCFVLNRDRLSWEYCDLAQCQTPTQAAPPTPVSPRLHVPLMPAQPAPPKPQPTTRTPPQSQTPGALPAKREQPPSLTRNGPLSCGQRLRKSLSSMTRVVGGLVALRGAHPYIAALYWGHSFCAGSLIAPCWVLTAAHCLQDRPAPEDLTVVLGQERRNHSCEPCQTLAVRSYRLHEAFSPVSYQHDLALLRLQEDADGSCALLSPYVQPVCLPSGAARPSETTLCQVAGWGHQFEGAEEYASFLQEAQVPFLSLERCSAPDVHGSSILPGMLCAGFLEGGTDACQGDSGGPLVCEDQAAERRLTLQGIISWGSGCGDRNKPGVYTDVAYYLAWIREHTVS

[4] = target: T4, Heat shock factor protein 1 (Mus musculus, UniProt P38532); experiment: decrease of HSF1-responsive luciferase luminescence – cell-based, NIH3T3, dose retest, confirmation (AID 2382); assay type: functional;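 also: NIH3T3 fibroblasts with HSF1-driven luciferase reporter stressed by proteasome inhibitor MG132; luminescence from HSF1-driven luciferase expression after 8 hours of MG132 stress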
T4 sequence (P38532 whole entry): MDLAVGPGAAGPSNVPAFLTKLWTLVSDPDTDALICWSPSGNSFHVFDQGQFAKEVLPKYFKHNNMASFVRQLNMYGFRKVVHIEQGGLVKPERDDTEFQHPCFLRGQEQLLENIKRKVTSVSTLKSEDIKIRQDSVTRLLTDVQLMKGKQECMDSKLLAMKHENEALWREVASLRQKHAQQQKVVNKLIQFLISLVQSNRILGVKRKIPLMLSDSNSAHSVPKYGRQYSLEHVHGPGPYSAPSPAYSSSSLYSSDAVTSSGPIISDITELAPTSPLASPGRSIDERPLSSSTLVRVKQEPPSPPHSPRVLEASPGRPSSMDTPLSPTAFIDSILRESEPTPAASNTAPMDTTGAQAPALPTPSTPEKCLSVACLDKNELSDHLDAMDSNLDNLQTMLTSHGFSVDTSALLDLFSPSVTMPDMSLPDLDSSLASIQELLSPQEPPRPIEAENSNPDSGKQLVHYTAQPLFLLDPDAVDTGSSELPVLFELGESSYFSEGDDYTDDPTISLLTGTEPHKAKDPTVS

P388 = experiment: cells; assay type: functional; conditions: Mus musculus
SN12K1 = experiment: cells; assay type: functional; conditions: Homo sapiens
P388/ADR = experiment: cells; assay type: functional; conditions: Mus musculus
[5] = OVCAR8 cell viability loss – plate reader, dry powder samples, PAX8 project, dose response (AID 743197); assay type: functional, cell-based; conditions: OVCAR-8
Paired box protein Pax-8 = Paired box protein Pax-8 (Homo sapiens, UniProt Q06710); experiment: PAX8 transcriptional activity inhibition in RMG-I – RMG-I cells, luciferase, cherry-pick, dose response (AID 687027); assay type: functional, cell-based;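 also: luciferase reporter driven by Pax8 target thyroperoxidase promoter measured by SteadyGlo luminescence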
Paired box protein Pax-8, sequence (Q06710 whole entry): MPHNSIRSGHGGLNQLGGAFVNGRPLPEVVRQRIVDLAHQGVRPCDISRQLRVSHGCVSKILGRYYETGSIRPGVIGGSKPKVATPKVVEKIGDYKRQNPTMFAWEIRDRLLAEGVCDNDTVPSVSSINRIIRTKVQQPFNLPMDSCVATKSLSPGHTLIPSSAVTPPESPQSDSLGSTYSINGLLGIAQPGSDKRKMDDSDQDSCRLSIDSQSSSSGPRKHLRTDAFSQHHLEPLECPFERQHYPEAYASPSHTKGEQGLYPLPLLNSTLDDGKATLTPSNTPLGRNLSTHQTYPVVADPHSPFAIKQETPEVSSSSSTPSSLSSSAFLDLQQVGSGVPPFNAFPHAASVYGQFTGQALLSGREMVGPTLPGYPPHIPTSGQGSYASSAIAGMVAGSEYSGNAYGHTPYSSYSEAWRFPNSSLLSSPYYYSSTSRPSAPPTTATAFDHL

[6] = OVCAR-3 cell viability loss – plate reader, dry powder samples, PAX8 inhibitor project, dose response (AID 743044); assay type: functional, cell-based
[7] = Luminescence Cell-Based Dose Retest to Confirm Inhibitors of Cancer Stem Cells. [Related pubchem assays (depositor defined):AID2717, AID2721]; assay type: functional; conditions: Homo sapiens
Fatty acid synthase [8] = target: T5, Fatty acid synthase (Homo sapiens, UniProt P49327); experiment: inhibition of human FAS-TE enzyme activity – biochemical, endpoint fluorescence intensity, uHTS hits, dose response (AID 624327); assay type: functional;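 also: fluorescence from hydrolysis of an O-methyl fluorescein acyl ester substrate by the enzyme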
T5 sequence (P49327 whole entry): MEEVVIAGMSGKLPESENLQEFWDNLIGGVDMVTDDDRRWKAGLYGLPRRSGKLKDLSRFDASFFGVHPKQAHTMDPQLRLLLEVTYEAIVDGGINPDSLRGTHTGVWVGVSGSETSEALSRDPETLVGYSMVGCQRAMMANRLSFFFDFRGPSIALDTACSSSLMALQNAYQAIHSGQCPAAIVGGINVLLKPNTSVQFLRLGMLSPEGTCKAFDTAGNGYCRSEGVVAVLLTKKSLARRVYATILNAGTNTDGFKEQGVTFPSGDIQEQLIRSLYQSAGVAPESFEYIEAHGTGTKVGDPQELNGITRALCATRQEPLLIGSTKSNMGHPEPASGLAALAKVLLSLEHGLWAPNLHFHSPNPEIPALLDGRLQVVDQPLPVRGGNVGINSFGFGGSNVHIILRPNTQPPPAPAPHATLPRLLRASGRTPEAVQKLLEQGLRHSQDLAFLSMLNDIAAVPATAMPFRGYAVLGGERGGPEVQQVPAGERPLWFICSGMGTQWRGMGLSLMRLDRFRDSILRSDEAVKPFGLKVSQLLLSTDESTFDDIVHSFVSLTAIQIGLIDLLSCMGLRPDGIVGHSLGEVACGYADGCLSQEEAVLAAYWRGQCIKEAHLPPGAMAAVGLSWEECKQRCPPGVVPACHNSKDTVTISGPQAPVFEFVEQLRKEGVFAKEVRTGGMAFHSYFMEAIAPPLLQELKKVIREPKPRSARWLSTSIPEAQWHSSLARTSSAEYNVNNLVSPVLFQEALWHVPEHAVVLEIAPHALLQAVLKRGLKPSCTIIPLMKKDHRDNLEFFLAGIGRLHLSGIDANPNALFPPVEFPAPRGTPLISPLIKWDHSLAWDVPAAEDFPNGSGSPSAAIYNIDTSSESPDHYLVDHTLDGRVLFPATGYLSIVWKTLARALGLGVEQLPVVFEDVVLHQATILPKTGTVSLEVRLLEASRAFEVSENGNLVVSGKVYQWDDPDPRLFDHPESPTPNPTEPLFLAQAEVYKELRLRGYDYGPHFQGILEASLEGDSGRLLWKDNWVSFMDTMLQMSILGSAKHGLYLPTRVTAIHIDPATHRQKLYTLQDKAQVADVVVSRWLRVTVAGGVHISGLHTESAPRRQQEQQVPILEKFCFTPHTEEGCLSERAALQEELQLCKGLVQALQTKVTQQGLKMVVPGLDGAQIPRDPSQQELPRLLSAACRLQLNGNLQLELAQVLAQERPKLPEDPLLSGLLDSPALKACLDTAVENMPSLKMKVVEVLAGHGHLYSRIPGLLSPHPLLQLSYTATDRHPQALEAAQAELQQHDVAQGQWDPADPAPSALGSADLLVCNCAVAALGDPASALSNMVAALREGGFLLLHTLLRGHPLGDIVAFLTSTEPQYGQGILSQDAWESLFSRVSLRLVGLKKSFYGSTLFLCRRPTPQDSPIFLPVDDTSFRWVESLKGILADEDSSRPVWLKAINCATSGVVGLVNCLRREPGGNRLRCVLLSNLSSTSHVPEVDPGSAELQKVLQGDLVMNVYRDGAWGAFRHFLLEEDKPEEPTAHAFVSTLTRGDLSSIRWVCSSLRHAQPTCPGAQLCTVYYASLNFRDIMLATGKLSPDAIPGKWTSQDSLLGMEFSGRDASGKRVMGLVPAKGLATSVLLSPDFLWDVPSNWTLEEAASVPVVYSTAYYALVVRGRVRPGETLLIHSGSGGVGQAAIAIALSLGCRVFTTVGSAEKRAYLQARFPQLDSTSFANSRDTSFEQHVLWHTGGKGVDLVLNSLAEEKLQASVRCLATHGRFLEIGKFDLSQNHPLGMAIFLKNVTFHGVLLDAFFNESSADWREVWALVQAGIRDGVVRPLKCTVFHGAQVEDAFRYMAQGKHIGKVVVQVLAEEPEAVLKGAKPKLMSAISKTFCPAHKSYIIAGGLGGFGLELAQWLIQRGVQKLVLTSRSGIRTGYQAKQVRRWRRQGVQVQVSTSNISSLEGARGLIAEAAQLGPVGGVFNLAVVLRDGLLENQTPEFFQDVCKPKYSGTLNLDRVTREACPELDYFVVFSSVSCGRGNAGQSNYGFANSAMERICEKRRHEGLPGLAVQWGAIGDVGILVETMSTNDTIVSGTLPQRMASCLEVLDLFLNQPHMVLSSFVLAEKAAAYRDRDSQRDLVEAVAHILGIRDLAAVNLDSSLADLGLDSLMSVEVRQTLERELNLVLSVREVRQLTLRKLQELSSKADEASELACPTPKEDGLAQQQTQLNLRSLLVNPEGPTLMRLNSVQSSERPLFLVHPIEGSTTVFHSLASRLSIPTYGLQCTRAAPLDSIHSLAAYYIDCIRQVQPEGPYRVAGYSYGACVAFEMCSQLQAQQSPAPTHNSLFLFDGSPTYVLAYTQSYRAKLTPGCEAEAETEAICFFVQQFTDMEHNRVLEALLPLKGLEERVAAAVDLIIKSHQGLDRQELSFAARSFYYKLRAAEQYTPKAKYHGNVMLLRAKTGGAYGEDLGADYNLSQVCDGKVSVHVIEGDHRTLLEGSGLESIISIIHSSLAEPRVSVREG

Fatty acid synthase [9] = target: T5, Fatty acid synthase; experiment: inhibition of human FAS-TE enzyme activity – biochemical, kinetic fluorescence intensity, dose response (AID 624326); assay type: functional;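 also: rate of fluorescence rise from hydrolysis of a fluorogenic O-methyl fluorescein ester substrate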
Nonstructural protein 1 = Nonstructural protein 1 (Influenza A virus, UniProt Q194T2); assay type: functional, Influenza A virus (A/California/07/2009(H1N1))
Nonstructural protein 1, sequence (Q194T2 whole entry): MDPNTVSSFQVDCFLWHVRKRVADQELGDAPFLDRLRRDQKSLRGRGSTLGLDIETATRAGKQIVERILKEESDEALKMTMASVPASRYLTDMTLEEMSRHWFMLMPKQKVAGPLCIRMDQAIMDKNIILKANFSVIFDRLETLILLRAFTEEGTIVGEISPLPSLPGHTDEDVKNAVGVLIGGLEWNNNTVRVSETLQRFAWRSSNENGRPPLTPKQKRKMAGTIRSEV

[10] = target: Induced myeloid leukemia cell differentiation protein Mcl-1 (Homo sapiens, UniProt Q07820); assay type: functional
Induced myeloid leukemia cell differentiation protein Mcl-1, sequence (Q07820 whole entry): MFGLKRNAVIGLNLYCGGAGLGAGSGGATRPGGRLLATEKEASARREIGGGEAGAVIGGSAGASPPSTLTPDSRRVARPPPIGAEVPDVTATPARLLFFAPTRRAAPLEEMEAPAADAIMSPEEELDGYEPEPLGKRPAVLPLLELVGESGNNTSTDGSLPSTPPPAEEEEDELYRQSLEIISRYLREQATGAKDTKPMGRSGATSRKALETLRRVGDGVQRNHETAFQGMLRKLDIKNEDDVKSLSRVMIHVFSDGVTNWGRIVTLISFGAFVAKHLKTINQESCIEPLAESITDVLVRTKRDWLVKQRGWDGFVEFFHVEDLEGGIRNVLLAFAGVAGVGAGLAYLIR

Glyceraldehyde-3-phosphate dehydrogenase, sequence (P04406 whole entry): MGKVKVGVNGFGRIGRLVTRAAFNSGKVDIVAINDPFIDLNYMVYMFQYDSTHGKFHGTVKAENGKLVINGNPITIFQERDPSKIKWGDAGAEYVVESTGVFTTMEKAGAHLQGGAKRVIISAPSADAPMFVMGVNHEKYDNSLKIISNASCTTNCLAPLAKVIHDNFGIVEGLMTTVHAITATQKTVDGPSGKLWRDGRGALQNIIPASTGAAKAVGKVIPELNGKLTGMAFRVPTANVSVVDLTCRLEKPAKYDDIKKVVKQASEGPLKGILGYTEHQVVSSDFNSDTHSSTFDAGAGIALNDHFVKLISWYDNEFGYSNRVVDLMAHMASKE

Cc1ccc(S(=O)(=O)Nc2cnc3ccccc3c2)cc1
IC50 [1]: > 100 µM (not active) | IC50 [2]: 44.9 µM (active)

CCc1nnc(NC(=O)CSc2nnc(-c3cc4ccccc4cc3O)n2CC)s1
Ki (fMet-Leu-Phe receptor): 61.1 µM (inactive)

Clc1ccc2oc3c(Cl)ncnc3c2c1
IC50 [3]: 6.41 µM (active)

CCCC(=O)n1nc(-c2cccnc2)nc1NCc1cccs1
IC50 (Prothrombin): 0.00426 µM (active)

CC(C)c1ccc2c(c1)CCC1C(C)(C(N)=O)CCCC21C (stereo not given)
AC50 (Cytochrome P450 3A4): 20 µM (inconclusive)

NC(=O)c1ccsc1NC(=O)c1nc(-c2ccccc2)n(-c2ccccc2)n1
IC50 (Prothrombin): 4.3 µM (active)

COc1ccc(N(CC(=O)Nc2ccc3c(c2)OCCO3)S(=O)(=O)c2c(C)nn(C)c2C)cc1
IC50 (Coagulation factor XII): > 50 µM (inactive)

COc1ccc2c(c1OC)C(=O)N(c1nnc(SC)[nH]1)C2=O
IC50 [1]: > 100 µM (not active) | IC50 [2]: 34.1 µM (active)

Cc1ccc(/C=C2\C(=O)NC(=O)N(CCc3ccc(F)cc3)C2=O)o1
IC50 [3]: 3.55 µM (active)

O=C1NC2(CCCCC2)NN1c1ccccc1
IC50 (Prothrombin): > 50 µM (not active)

COCCN(CCOC)c1nc(C)nc2c1nc(-c1ccccc1)n2CCN1CCCC1
AC50 (Cytochrome P450 3A4): 20 µM (inconclusive)

O=C(C1=C(O)C(=O)N(CCc2ccccc2)C1c1cccnc1)c1ccco1 (stereo not given)
Ki (fMet-Leu-Phe receptor): > 66.7 µM (inactive)

CC(C)=CCC/C(C)=C/C=C/C1=CC2(C)CC1(C)C(/C=C(\C)CCC=C(C)C)CC2=O (stereo not given)
AC50 (Cytochrome P450 3A4): 3.98 µM (inconclusive)

O=C(CSC1CCCCC1)Nc1nccs1
IC50 (Prothrombin): > 50 µM (not active)

O=C(O)CC(Cc1ccc(Br)cc1)C(=O)O (stereo not given)
IC50 (Coagulation factor XII): > 50 µM (inactive) | EC50 [4]: > 195 µM (not active)

CCN(CC)C(=O)c1cc(-c2cc(F)c(Cl)cc2Cl)n[nH]1
IC50 [1]: > 10 µM (inconclusive) | IC50 [2]: 3.63 µM (active)

CC(CN1C(C)CCCC1C)OC(=O)c1ccc(Cl)cc1Cl (stereo not given)
IC50 (Coagulation factor XII): > 50 µM (inactive)

CCC(CC)c1nnc(NC(=O)Oc2ccccc2)s1
IC50 (Coagulation factor XII): > 50 µM (inactive)

O=C(C1=C(O)C(=O)N(CCCN2CCOCC2)C1c1ccccn1)c1cc2ccccc2o1 (stereo not given)
Ki (fMet-Leu-Phe receptor): 60.7 µM (inactive)

CC(=O)n1nc(-c2ccc(Cl)cc2)nc1NCc1ccco1
IC50 (Prothrombin): 1.44 µM (active)

Cc1nn2c(CN(C(=O)CN3CCOCC3)c3ccccc3)nnc2c2ccccc12
IC50 (Coagulation factor XII): > 50 µM (inactive) | EC50 [4]: > 195 µM (not active)

CN(N=O)C(=O)N[C@H]1C(O)O[C@H](CO)[C@@H](O)[C@@H]1O (stereo not given in full)
GI50 (P388): 451 µM (inactive) | GI50 (SN12K1): 532 µM (inactive) | GI50 (P388/ADR): 484 µM (inactive)

Nc1ccnn1Cc1cccs1
IC50 (Coagulation factor XII): > 50 µM (inactive)

c1ccc(Cn2cnc(-c3cccnc3)c2)cc1
IC50 [1]: > 100 µM (not active) | IC50 [2]: > 100 µM (inactive)

COC(=O)[C@H](C(C)C)n1c(C)c(C(C)=O)c(C(C)=O)c1C
Ki (fMet-Leu-Phe receptor): > 66.7 µM (inactive)

C#CCNC(=O)CCC(N)C(=O)O (stereo not given)
GI50 (P388): > 100 µM (inactive) | GI50 (SN12K1): > 100 µM (inactive) | GI50 (P388/ADR): > 100 µM (inactive)

C[C@H](N)C(=O)N[C@@H]1[C@H]2C(=C(O)C[C@@H](O)[C@@H]2O)C(=O)O[C@@H]1C
GI50 (P388): > 53.2 µM (inactive) | GI50 (SN12K1): > 100 µM (inactive) | GI50 (P388/ADR): > 73.3 µM (inactive)

COC1=C(C)C(=O)C2=C(C1=O)[C@@H]1[C@@H]3Cc4c(OC(=O)CO)c(C)c(OC)c(O)c4[C@H](CNC(=O)C(C)=O)N3[C@@H](C#N)[C@H](C2)N1C
GI50 (P388): < 0.01 µM (active) | GI50 (SN12K1): 0.0358 µM (active) | GI50 (P388/ADR): 0.125 µM (active)

Cc1ccc(S(=O)(=O)Nc2ccc3c(c2)C(=O)N([C@@H](C)CO)C[C@@H](C)[C@H](CN(C)Cc2ccc(C(F)(F)F)cc2)OCCCC[C@H](C)O3)cc1
AC50 [5]: > 70 µM (inactive) | AC50 (Paired box protein Pax-8): 6.38 µM (active) | AC50 [6]: 4.07 µM (active)

COc1ccc(-c2ccc3c(c2)[C@@H]2[C@@H](CCN2S(=O)(=O)c2ccc(OC)cc2)[C@@H](CO)N3C)cc1
AC50 [5]: 51.2 µM (active) | AC50 (Paired box protein Pax-8): 12.3 µM (active) | AC50 [6]: 31.2 µM (active)

CC1[C@@]2(O[C@@H]3C=C4C5CCC6Cc7nc8c(nc7C[C@@]6(C)C5C[C@H](O)[C@@]4(C)[C@]13O)CC1CCc3c(cc4c5c3C(O)C[C@H]5[C@@H](C)C3(O4)OC(C)(C)CC3O)[C@]1(C)C8)O[C@@](C)(CO)C[C@@H]2O (stereo not given in full)
GI50 (P388): 0.103 µM (active) | GI50 (SN12K1): 0.0404 µM (active) | GI50 (P388/ADR): 2.69 µM (inactive)

CCN(CC)c1ccc2c(C)cc(=O)oc2c1
AC50 (Cytochrome P450 3A4): 20 µM (inconclusive)

COc1cc(/C=N/NC(=O)c2cc(C34CC5CC(CC(C5)C3)C4)[nH]n2)ccc1O
IC50 [3]: 2.69 µM (active) | AC50 [7]: 0.699 µM (active)

Cc1cc(-c2ccccc2)nc(N/N=C/c2ccc([N+](=O)[O-])cc2)n1
IC50 (Fatty acid synthase [8]): 8.37 µM (active) | IC50 (Fatty acid synthase [9]): 6.41 µM (active) | IC50 (Nonstructural protein 1): > 100 µM (active)

COc1cc(/C=N/Nc2n[nH]c3c4ccccc4nc-3n2)ccc1O
IC50 [10]: 3.9 µM (active)

Nc1ccn(C2OC(CO)C(O)C2O)c(=O)c1 (stereo not given)
GI50 (P388): 57 µM (inactive) | GI50 (SN12K1): 344 µM (inactive)
